Values quoted from earlier work, collected in EP3320903B1 (HK inno.N Corporation, priority 2015, dated 2017).

SMILES: CC(C)c1nc(N(C)S(C)(=O)=O)nc(-c2ccc(F)cc2)c1/C=C/[C@@H](O)C[C@@H](O)CC(=O)O [rosuvastatin, (3R,5S,6E)-7-[4-(4-fluorophenyl)-2-(N-methylmethanesulfonamido)-6-(propan-2-yl)pyrimidin-5-yl]-3,5-dihydroxyhepten-6-oic acid]
- pKa: ~4.6
